Several values for one entry are separate records, joined by “and”; a condition that tells them apart may be missing. Equal entries are not always repeated.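 Values below derive from 48-hour exposures of cells grown in 96-well plates, with endpoints linearly interpolated between the two concentrations bracketing the appropriate inhibition level. GI50 marks 50% less growth. TGI: concentration producing complete growth inhibition.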
Assays:
Assay in all cases: NCI anticancer screen, dose series, 48 h
HOP-62 NSCLC = test system: HOP-62 NSCLC
NCI-H460 lung = test system: NCI-H460 lung
NCI-H522 lung = test system: NCI-H522 lung
OVCAR-3 ovarian = test system: OVCAR-3 ovarian
OVCAR-5 ovarian = test system: OVCAR-5 ovarian
RXF 393 renal = test system: RXF 393 renal
SK-OV-3 ovarian = test system: SK-OV-3 ovarian
SN12C renal = test system: SN12C renal
SNB-19 CNS = test system: SNB-19 CNS
UACC-257 melanoma = test system: UACC-257 melanoma

SMILES | GI50 (HOP-62 NSCLC) | TGI (HOP-62 NSCLC) | GI50 (NCI-H460 lung) | TGI (NCI-H460 lung) | GI50 (NCI-H522 lung) | TGI (NCI-H522 lung) | GI50 (OVCAR-3 ovarian) | TGI (OVCAR-3 ovarian) | GI50 (OVCAR-5 ovarian) | TGI (OVCAR-5 ovarian) | GI50 (RXF 393 renal) | GI50 (SK-OV-3 ovarian) | TGI (SK-OV-3 ovarian) | GI50 (SN12C renal) | TGI (SN12C renal) | GI50 (SNB-19 CNS) | TGI (SNB-19 CNS) | GI50 (UACC-257 melanoma) | TGI (UACC-257 melanoma) | TGI (RXF 393 renal)
COc1ccc2c(=O)cc(-c3ccccc3)[nH]c2c1 | 9.74 µM | > 100 µM | 0.397 µM | > 42 µM | 0.698 µM | 14.2 µM | 0.408 µM | 2.14 µM | 22.2 µM | > 100 µM | 0.762 µM | 1.17 µM | > 30.8 µM | 3.16 µM | > 100 µM | 1.75 µM | > 100 µM | 0.335 µM | > 100 µM | 
CS(=O)(=O)CCNCc1cc(-c2cc3c(Nc4ccc(OCc5cccc(F)c5)c(Cl)c4)ncnc3s2)cs1 | > 16.8 µM | > 25 µM | 9.64 µM | > 25 µM | 9.64 µM | > 25 µM | 6.82 µM | > 25 µM | 13.5 µM | > 25 µM | 2.27 µM | 1.04 µM | > 19.6 µM | 15.3 µM | > 25 µM | 24.6 µM | > 25 µM | 12.9 µM | > 25 µM | 11.8 µM
CC(C)c1cnn2c(NCc3ccccc3)cc(NC[C@H]3CCNC[C@@H]3O)nc12 | 0.225 µM and 0.348 µM | 1.33 µM and 3.13 µM | 0.0583 µM and 0.0817 µM | 1.7 µM and 3.31 µM | 0.844 µM and 0.438 µM | 2.7 µM and 2.43 µM | 0.489 µM and 0.707 µM | 8.66 µM and 4.17 µM | 0.312 µM and 0.575 µM | 6.72 µM and 5.38 µM | 0.352 µM and 1.03 µM | 4.71 µM and 3.41 µM | 15.1 µM and 16.5 µM | 0.327 µM and 0.378 µM | 10.5 µM and 6.49 µM | 0.495 µM and 0.611 µM | 9.76 µM and 8.48 µM | 0.656 µM and 0.716 µM | 4.78 µM and 5.18 µM | 1.09 µM and 2.83 µM
O=C(Cc1nc2ccccc2c(=O)n1-c1ccccc1Cl)c1ccncc1 |  | > 100 µM |  | > 100 µM |  | > 100 µM |  | > 100 µM |  | > 100 µM |  |  | > 100 µM |  | > 100 µM |  | > 100 µM |  | > 100 µM | > 100 µM
O=C1/C(=C/c2cccc(Br)c2)COc2ccc(O)cc21 | 11.7 µM | 24.3 µM | 3.69 µM | 13.2 µM | 1.46 µM | 3.11 µM | 1.82 µM | 3.89 µM | 3.72 µM | 14.5 µM | 2.12 µM | 7.33 µM | 19.8 µM | 1.85 µM | 4.28 µM | 2.43 µM | 7.47 µM | 3.93 µM | 15.9 µM | 5.99 µM
CC1=Nc2c(ccc3c2C(=O)c2ccccc2C3=O)NC(c2cccc3c2CCC3)C1 (stereo not given) |  | > 100 µM |  | > 100 µM |  | > 100 µM |  | > 100 µM |  | > 100 µM |  |  | > 100 µM |  | > 100 µM |  | > 100 µM |  | > 100 µM | > 100 µM
CCNc1cc(-c2cccc(OC(F)(F)F)c2)nc2ccc(N3CCCC3)cc12 | 1.62 µM | 3.16 µM | 1.75 µM | 4.1 µM | 1.45 µM | 3.65 µM | 1.56 µM | 3.14 µM | 2.36 µM | 7.63 µM | 1.18 µM | 1.8 µM | 3.86 µM | 1.7 µM | 3.97 µM | 3.12 µM | 10.9 µM | 1.66 µM | 3.46 µM | 3.17 µM
CCCNC(=O)C1C(=O)C(=O)N(CCC)C1=O (stereo not given) |  | > 100 µM |  | > 100 µM |  | > 100 µM |  | > 100 µM |  | > 100 µM |  |  | > 100 µM |  | > 100 µM |  | > 100 µM |  | > 100 µM | > 100 µM
CC(C)CCC[C@@H](C)[C@H]1CC[C@H]2[C@@H]3CC[C@H]4C[C@@H](CCC=C(c5cc(Cl)c(O)c(C(=O)O)c5)c5cc(Cl)c(O)c(C(=O)O)c5)CC[C@]4(C)[C@H]3CC[C@]12C |  | > 100 µM |  | > 100 µM |  | > 100 µM |  | > 100 µM |  | > 100 µM |  |  | > 100 µM |  | > 100 µM |  | > 100 µM |  | > 100 µM | > 100 µM
Cc1nc(-c2ccccc2)n2nc(NCCCN3CCOCC3)ncc12 | > 25 µM | > 25 µM | 21.2 µM | > 25 µM | > 25 µM | > 25 µM | > 25 µM | > 25 µM | > 25 µM | > 25 µM | 6.75 µM | 6.1 µM | 17.9 µM | > 25 µM | > 25 µM | > 25 µM | > 25 µM | > 25 µM | > 25 µM | > 25 µM
CCCCCCCCOC(=O)CC[C@@H](C)[C@H]1CC[C@H]2[C@@H]3[C@H](OC(=O)CCN)C[C@@H]4C[C@H](OC(=O)CCN)CC[C@]4(C)[C@H]3C[C@H](OC(=O)CCN)[C@]12C | 2.71 µM | 7.14 µM | 3.18 µM | 10.6 µM | 2.26 µM | 4.42 µM | 14.6 µM | 35.4 µM | 3.24 µM | 10.1 µM | 9.66 µM | 10.5 µM | 27 µM | 6.62 µM | 22.2 µM | 3.48 µM | 13.8 µM | 3.84 µM | 16.5 µM | 29 µM
O=C(Nc1cc(C(F)(F)F)ccc1Cl)c1ccc(NC2=C(Cl)C(=O)N(Cc3ccccc3)C2=O)cc1 | > 100 µM | > 100 µM | 34.3 µM | > 100 µM | 11.1 µM | 28 µM | 19.1 µM | 46.1 µM | > 100 µM | > 100 µM | 23.7 µM | > 100 µM | > 100 µM | 19.6 µM | 61.2 µM | 30.4 µM | > 100 µM | 31.7 µM | 96.9 µM | 73 µM
NCCSSCCN |  | > 100 µM |  | > 100 µM |  | > 100 µM |  | > 100 µM |  | > 100 µM |  |  | > 100 µM |  | > 100 µM |  | > 100 µM | > 100 µM and 18.2 µM | > 100 µM | > 100 µM
COc1ccccc1C#Cc1ccccc1C#CCCCCO | 14.6 µM | > 100 µM | 15.5 µM | 34.2 µM | 16.3 µM | 33.8 µM | 19.8 µM | 47.2 µM | 16.8 µM | 34.1 µM | 13.8 µM | 17.9 µM | 40.7 µM | 17.5 µM | 34.5 µM | 16.7 µM | 32.8 µM | 20.6 µM | 38.8 µM | 29.8 µM

Source: PubChem BioAssay (NCI)
